Source: patent US20220193124A1, “Therapeutic Agent for Flavivirus Infection” (NEOPHARMA JAPAN CO., LTD., priority 2019, published 2022)
Read-outs that look alike come from different tables or passages of the source.

Key:
flavivirus = experiment: Difference in concentrations for exhibiting cell toxicity and drug efficacy (therapeutic window)
Text: As one of action mechanisms of the anti-dengue virus activity of lucidone, an increase in HO-1 in cells is known.

Vero cells = experiment: MTT assay, cell toxicity in non-infected cells; type: cell-based
Experimental: (§1) (1) One day before the experiment, Vero cells were inoculated in a 96-well plate and incubated at 37° C. and 5% CO2. (2) Two-fold serial dilutions of 5-ALA were prepared (˜0.8 mM) using the maintenance culture solution (MEM+1% fetal bovine serum+10 mM non-essential amino acid+1000 U/ml penicillin+100 μg/ml streptomycin+1 mM HEPES). Water was used as a negative control. Two-fold serial dilutions of lucidone were also prepared (˜160 μM) in the same manner. (3) The culture solution was removed from the plate thus prepared, and the 5-ALA solution or the lucidone solution prepared in (2) was added to the plate in a volume of 100 μl per well. Three wells were used for each condition. (4) The old culture solution was removed from the plate every 24 hours, and the fresh 5-ALA solution or lucidone solution was added to the plate, followed by culturing. (5) The cells were cultured with the 5-ALA solution for 2, 4, or 7 days or with the lucidone solution for 7 days, and then rinsed with PBS twice. An MTT solution in a volume of 100 μl was added to the cells, and the cells were cultured at 37° C. and 5% CO2 for 3 hours. The MTT solution in use was prepared by dissolving thiazolyl blue tetrazolium bromide in a mixture containing equal volumes of 2×MEM and sterile water (10 mg/ml) and sterilizing the resulting mixture by filtration (prepared before use). (6) The culture solution was removed from the plate, and isopropyl alcohol in a volume of 100 μl was added to the plate, and the plate was subject to shaking at room temperature for about 5 minutes. (7) The absorbance at 570 nm was measured, and the relative absorbance was calculated as a percentage with respect to the absorbance in the well of 0 mM treatment.

[1] = MTT assay, cell toxicity in non-infected cells; type: cell-based; conditions: African green monkey, Vero cells (non-infected); non-infected cells; treatment for 7 days; read-out: CC50 (concentration at which cell toxicity is caused to 50% of cells)
Experimental: as §1

[2] = test system: Zika virus PRVABC59 strain (ZKV); experiment: Inhibitory effect on Zika virus replication in Vero cells; type: cell-based
Experimental: (§2) (1) One day before infection (Day 0), Vero cells were seeded in a 24-well plate and incubated at 37° C. and 5% CO2. A culture solution was MEM+10% fetal bovine serum+10 mM non-essential amino acid+1000 U/ml penicillin+100 μg/ml streptomycin. In an experiment in which the treatment with the agent was performed before infection, the agent to be examined was added to the culture solution at this point. In all experiments, 5-aminolevulinic acid hydrochloride was used as 5-ALA, sodium ferrous citrate (SFC) was used as an iron-containing compound, 300 μM ribavirin or lucidone of various concentrations was used as a positive control, and water was used as a negative control. […] After the viruses were adsorbed to the cells for 1 hour, the cells were rinsed with phosphate-buffered saline (PBS) to completely remove the inoculation liquid. A maintenance culture solution (MEM+1% fetal bovine serum+10 mM non-essential amino acid+1000 U/ml penicillin+100 μg/ml streptomycin+1 mM HEPES) in a volume of 1 ml was added to the plate, and the cells were cultured at 37° C. and 5% CO2. In an experiment in which the agent was added concurrently with infection, the agent to be examined was added to the maintenance culture solution at this point. (3) After 24 hours (Day 2), the culture solution was recovered from the plate and a fresh maintenance culture solution in a volume of 1 ml was added to the plate, and the cells were cultured at 37° C. and 5% CO2. In an experiment in which the agent was added after infection, the agent to be examined was added at predetermined time points after infection. The recovered culture solution was subjected to centrifugation at 3000 rpm for 5 minutes and the resulting supernatant was frozen and stored. (4) Thereafter, recovering and supplying of the culture solution was repeated every 24 hours. It is of note that the infection experiments were performed using 2 wells for all conditions.
(§3) (1) One day before the experiment, Vero cells were inoculated in a 24-well plate and incubated at 37° C. and 5% CO2. (2) Samples for titer measurement were thawed and ten-fold serial dilutions of the samples were prepared using the maintenance culture solution. (3) The culture solution was removed from the plate thus prepared, and the serial dilutions prepared in procedure (2) were each inoculated in a volume of 200 μl. After adsorption for 1 hour, the inoculation liquid was removed from the plate, and 1% methyl cellulose (MEM+1% methyl cellulose+1% fetal bovine serum) in a volume of 1 ml was added to the plate. […] The crystal violet solution was removed from the plate, and, after rinsing with water and drying, the number of plaques was counted. The viral titer in the culture solution was calculated based on the number of plaques. […]

[3] = test system: dengue virus type-1 Mochizuki strain (DENV1); experiment: Inhibitory effect on dengue virus type-1 replication in Vero cells; type: cell-based
Experimental: as §2, with “(4) Thereafter, recovering and supplying of the culture solution was repeated every 24 hours. It is of note that the infection experiments were performed using 2 wells for all conditions.” left out
(1) One day before the experiment, Vero cells were inoculated in a 24-well plate and incubated at 37° C. and 5% CO2. […] The crystal violet solution was removed from the plate, and, after rinsing with water and drying, the number of plaques was counted. The viral titer in the culture solution was calculated based on the number of plaques. […]

[4] = test system: dengue virus type-3 CH53489 strain (DENV3); experiment: Inhibitory effect on dengue virus type-3 replication in Vero cells; type: cell-based
Experimental: as §2, §3

heme oxygenase-1 (HO-1) = conditions: Non-Patent Literatures 11, 13, 14, 15; cited from earlier work
[5] = test system: dengue virus type-4 TVP360 strain (DENV4); experiment: Inhibitory effect on dengue virus type-4 replication in Vero cells; type: cell-based
Experimental: as §2, §3

[6] = test system: Japanese encephalitis virus Nakayama strain (JEV Nakayama); experiment: Inhibitory effect on Japanese encephalitis virus replication in Vero cells (progeny virus titer by plaque assay); type: cell-based
dengue virus = conditions: Non-Patent Literatures 9 to 11; cited from earlier work
Zika virus = conditions: Non-Patent Literatures 7 and 8, cited from earlier work
[7] = test system: Japanese encephalitis virus; conditions: Non-Patent Literature 6; cited from earlier work

## Cl.NCC(=O)CCC(=O)O [5-ALA, 5-aminolevulinic acid hydrochloride]
flavivirus; higher than 0.8 mM not examined
  concentration required for causing the cell toxicity: at least 0.8 mM
flavivirus; summary of Examples
  concentration at which anti-flavivirus activity is confirmed: ≥ 0.2 mM
Vero cells; non-infected cells, 5-ALA solution for 2, 4 or 7 days, up to 0.8 mM, FIGS. 12-14
  cell toxicity: observed in the non-infected cells in a dose-dependent manner
[1]
  CC50 at 7 days: > 800 µM
[2]; 0.2 mM, after Day 9
  inhibitory effect after Day 9: decreased
[2]; 0.2 mM, treatment for 7 days after infection, FIG. 25
  inhibitory effect on Zika virus: exhibited up to Day 8
[2]; 5-ALA 0.2 mM vs ribavirin 300 μM, FIG. 25
  inhibitory effect on Zika virus replication compared with ribavirin: stronger than the effect of ribavirin (300 μM) on Day 5, Day 6, and Day 8
[3]; 0.2 mM, treatment for 7 days after infection, FIG. 22
  inhibitory effect on dengue virus type-1: exhibited up to Day 9
[3]; 5-ALA 0.2 mM vs ribavirin 300 μM, FIG. 22
  inhibitory effect on dengue virus type-1 replication compared with ribavirin: stronger than the effect of ribavirin (300 μM)
[3]; after removal of the agent
  inhibitory effect on dengue virus type-1 when the agent was removed from the culture solution: lost with the lapse of time
[4]; 0.2 mM, Day 8
  inhibitory effect on dengue virus type-3 replication on Day 8: decreased
[4]; 0.2 mM, treatment for 7 days after infection, FIG. 23
  inhibitory effect on dengue virus type-3: exhibited up to Day 7
[4]; 5-ALA 0.2 mM vs ribavirin 300 μM, FIG. 23
  inhibitory effect on dengue virus type-3 replication compared with ribavirin: stronger than the effect of ribavirin (300 μM)
Heme oxygenase-1 (HO-1)
  heme oxygenase-1 (HO-1) in cells: induces expression of HO-1
[5]; 0.2 mM, Day 8
  inhibitory effect on dengue virus type-4 replication on Day 8: decreased
[5]; 0.2 mM, treatment for 7 days after infection, FIG. 24
  inhibitory effect on dengue virus type-4: exhibited up to Day 7
[6]; 0.05 mM, treatment for 7 days after infection, FIG. 7
  inhibitory effect on Japanese encephalitis virus replication: exhibited
[6]; 0.2 mM, treatment for 2 days after infection, FIG. 11
  inhibitory effect on Japanese encephalitis virus replication: exhibited
[6]; 0.2 mM, treatment for 4 days after infection, FIG. 10
  inhibitory effect on Japanese encephalitis virus replication: exhibited
[6]; 0.2 mM, treatment for 7 days after infection, FIG. 7
  inhibitory effect on Japanese encephalitis virus replication: exhibited
[6]; 5-ALA 0.2 mM vs lucidone 10 μM and 2.5 μM, 7 days after infection, FIG. 20
  inhibitory effect on Japanese encephalitis virus replication, 5-ALA compared with low dose lucidone: stronger inhibitory effect on the Japanese encephalitis virus replication than 10 μM and 2.5 μM of lucidone
[6]; 5-ALA 0.2 mM vs ribavirin 300 μM, 7 days after infection, FIG. 7
  inhibitory effect on Japanese encephalitis virus replication compared with ribavirin: stronger than the effect of ribavirin (300 μM)
[6]; 1 day treatment after infection, vs Example 4
  duration of inhibitory effect on Japanese encephalitis virus after removal, compared with dengue virus: lasted longer than in the case of the dengue virus
[6]; FIG. 7, FIG. 10, FIG. 11
  inhibitory effect on Japanese encephalitis virus replication, treatment for 4 days and 2 days compared with 7 days: less inhibitory effect
[6]; after removal of the agent
  inhibitory effect on Japanese encephalitis virus replication when the agent was removed from the culture solution: lost with the lapse of time
[6]; continuous treatment 7 days, compared with ribavirin, FIG. 7
  appearance of virus resistant to the agent: delays the appearance of the virus resistant to the agent more than ribavirin
[6]; treatment after infection for 1 day (Day 2), 0.05 mM to 1 mM, FIG. 5
  dose-dependent inhibitory effect on Japanese encephalitis virus replication: exhibited the dose-dependent inhibitory effect

## COC1=CC(=O)C(=C(O)/C=C/c2ccccc2)C1=O [lucidone, reference compound]
flavivirus; summary of Examples
  concentration at which anti-flavivirus activity is confirmed: 0.04 mM
  concentration at which cell toxicity is confirmed: 40 µM
Vero cells; cells not infected with the flavivirus, 40 μM, 7 days
  cell toxicity at 40 μM: did not cause the cell toxicity
Vero cells; non-infected cells, lucidone for 7 days, up to 160 μM, FIG. 15
  cell toxicity: observed in a dose-dependent manner
Vero cells; non-infected cells, treatment for 7 days, read-out: CC50 (concentration at which cell toxicity is caused to 50% of cells)
  CC50: > 60 µM
Heme oxygenase-1 (HO-1)
  heme oxygenase-1 (HO-1) in cells: increases HO-1 in cells
Dengue virus
  replication of dengue virus: suppress replication
[6]; lucidone 40 μM vs 5-ALA 0.2 mM, 7 days after infection, FIG. 17
  inhibitory effect on Japanese encephalitis virus replication, lucidone compared with 5-ALA: stronger inhibitory effect on the Japanese encephalitis virus replication than 0.2 mM 5-ALA

## O=C(Nc1ccc([N+](=O)[O-])cc1Cl)c1cc(Cl)ccc1O [niclosamide]
Zika virus
  replication of Zika virus: suppress replication

## CC(=O)Oc1ccccc1C(=O)Nc1ncc([N+](=O)[O-])s1 [nitazoxanide]
[7]
  replication of Japanese encephalitis virus: suppress replication

## NC(=O)c1ncn([C@@H]2O[C@H](CO)[C@@H](O)[C@H]2O)n1 [ribavirin, reference compound]
[2]; ribavirin 300 μM
  inhibitory effect on Zika virus replication under continuous treatment: reduction in the inhibitory effect
[4]; ribavirin 300 μM, from Day 7
  inhibitory effect on dengue virus type-3 replication under continuous treatment: reduction in the inhibitory effect
Dengue virus
  replication of dengue virus: suppress replication
[5]; ribavirin 300 μM
  inhibitory effect on dengue virus type-4 replication under continuous treatment: reduction in the inhibitory effect
[5]; ribavirin 300 μM vs 5-ALA 0.2 mM, FIG. 24
  inhibitory effect on dengue virus type-4 replication, ribavirin compared with 5-ALA: stronger than the inhibitory effect on the dengue virus replication by treatment with 5-ALA (0.2 mM)

## Hemin
Zika virus
  replication of Zika virus: suppress replication of Zika virus in vitro
Zika virus; listed as hemin
  replication of Zika virus: reduces replication of Zika virus in vitro
